Data published in ChEMBL document CHEMBL1130584, “Synthesis of boronic acid analogs of L-arginine as alternate substrates or inhibitors of nitric oxide synthase” (Bioorg Med Chem Lett, 1998).

How the values were obtained:
[1] = target: T1, Nitric oxide synthase, inducible (Homo sapiens, UniProt P35228); assay: Compound was tested for inhibitory activity against inducible nitric oxide synthase using L-arginine as substrate
[2] = target: Nitric oxide synthase 1 (Homo sapiens, UniProt P29475); assay: Compound was tested for inhibitory activity against neuronal nitric oxide synthase
Sequence of Nitric oxide synthase 1 (P29475 whole entry): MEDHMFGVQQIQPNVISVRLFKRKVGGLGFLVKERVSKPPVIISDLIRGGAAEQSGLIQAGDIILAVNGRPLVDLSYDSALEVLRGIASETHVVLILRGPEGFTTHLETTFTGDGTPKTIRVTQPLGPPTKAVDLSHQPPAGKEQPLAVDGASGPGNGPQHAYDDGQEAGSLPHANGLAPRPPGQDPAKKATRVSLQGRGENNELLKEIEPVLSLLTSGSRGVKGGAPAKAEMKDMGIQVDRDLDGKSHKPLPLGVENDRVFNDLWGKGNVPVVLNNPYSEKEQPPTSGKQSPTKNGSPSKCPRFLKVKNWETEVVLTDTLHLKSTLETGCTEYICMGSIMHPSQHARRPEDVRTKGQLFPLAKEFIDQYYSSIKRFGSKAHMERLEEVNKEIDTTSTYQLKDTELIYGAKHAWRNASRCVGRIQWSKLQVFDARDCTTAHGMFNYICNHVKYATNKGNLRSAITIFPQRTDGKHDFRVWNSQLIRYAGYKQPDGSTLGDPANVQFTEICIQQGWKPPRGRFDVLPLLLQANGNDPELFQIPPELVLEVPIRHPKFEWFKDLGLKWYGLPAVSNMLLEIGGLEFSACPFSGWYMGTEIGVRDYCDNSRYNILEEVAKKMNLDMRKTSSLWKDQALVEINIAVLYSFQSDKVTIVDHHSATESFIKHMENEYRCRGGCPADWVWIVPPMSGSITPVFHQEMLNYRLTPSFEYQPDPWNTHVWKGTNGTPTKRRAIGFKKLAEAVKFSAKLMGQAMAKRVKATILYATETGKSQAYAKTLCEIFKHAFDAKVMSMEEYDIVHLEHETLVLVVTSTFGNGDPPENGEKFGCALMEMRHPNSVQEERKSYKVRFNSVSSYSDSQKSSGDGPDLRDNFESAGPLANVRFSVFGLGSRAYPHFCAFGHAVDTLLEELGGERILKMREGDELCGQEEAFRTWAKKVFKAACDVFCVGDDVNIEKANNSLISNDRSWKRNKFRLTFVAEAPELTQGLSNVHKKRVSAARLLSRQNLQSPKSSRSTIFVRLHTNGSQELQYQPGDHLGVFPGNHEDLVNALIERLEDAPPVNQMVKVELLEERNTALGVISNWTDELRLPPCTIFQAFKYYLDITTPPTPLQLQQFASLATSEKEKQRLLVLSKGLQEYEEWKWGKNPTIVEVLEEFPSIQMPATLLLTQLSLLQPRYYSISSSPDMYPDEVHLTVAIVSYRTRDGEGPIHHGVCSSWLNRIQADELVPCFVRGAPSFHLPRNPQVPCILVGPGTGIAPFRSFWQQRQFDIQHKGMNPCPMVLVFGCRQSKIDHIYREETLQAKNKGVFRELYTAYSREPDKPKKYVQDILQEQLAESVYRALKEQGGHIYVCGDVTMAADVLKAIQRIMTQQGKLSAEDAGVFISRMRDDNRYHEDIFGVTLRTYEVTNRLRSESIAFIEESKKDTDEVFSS

[3] = target: T1, Nitric oxide synthase, inducible; assay: Compound was tested for inhibitory activity against inducible nitric oxide synthase

T1 sequence (P35228 whole entry): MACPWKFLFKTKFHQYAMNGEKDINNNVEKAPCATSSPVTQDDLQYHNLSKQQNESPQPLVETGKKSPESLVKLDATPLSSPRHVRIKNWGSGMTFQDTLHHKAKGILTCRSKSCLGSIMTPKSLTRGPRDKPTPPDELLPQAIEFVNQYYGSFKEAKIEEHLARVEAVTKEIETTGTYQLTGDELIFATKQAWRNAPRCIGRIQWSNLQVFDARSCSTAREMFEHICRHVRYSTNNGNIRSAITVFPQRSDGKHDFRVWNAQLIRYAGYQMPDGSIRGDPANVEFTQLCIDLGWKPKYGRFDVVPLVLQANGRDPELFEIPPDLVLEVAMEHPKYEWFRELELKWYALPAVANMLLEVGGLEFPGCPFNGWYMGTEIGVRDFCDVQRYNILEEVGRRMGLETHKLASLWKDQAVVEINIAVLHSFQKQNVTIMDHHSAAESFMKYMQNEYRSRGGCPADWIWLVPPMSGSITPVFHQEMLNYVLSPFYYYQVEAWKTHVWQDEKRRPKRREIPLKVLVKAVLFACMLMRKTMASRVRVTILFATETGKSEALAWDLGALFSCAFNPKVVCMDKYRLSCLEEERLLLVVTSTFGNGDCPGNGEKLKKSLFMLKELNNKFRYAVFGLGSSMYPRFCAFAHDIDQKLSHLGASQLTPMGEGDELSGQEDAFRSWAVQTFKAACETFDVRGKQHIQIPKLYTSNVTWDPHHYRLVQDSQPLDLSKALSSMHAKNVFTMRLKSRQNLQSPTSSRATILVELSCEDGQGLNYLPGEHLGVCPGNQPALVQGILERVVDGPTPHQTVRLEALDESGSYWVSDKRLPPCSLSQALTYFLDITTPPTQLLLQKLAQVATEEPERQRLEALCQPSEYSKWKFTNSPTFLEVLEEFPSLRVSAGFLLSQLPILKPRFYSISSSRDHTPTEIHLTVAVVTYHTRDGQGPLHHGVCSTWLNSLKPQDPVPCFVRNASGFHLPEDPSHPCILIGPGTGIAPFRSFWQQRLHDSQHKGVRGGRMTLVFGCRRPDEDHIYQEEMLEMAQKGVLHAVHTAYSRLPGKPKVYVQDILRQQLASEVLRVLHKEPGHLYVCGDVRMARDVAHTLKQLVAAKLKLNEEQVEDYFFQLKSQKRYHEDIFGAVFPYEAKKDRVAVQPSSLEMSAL

| Ks [1] [µM] | IC50 [2] [µM] | IC50 [3] [µM] | SMILES |
| --- | --- | --- | --- |
| 200 | 300 | 50 | NC(N)=NCCC[C@H](N)B(O)O |
| – | > 500 | > 500 | CC(=O)N[C@@H](CCCN=C(N)N)B(O)O |
